Measurements reported in ChEMBL document CHEMBL1127015, “Centrally acting serotonergic and dopaminergic agents. 1. Synthesis and structure-activity relationships of 2,3,3a,4,5,9b-hexahydro-1H-benz[e]indole derivatives” (J Med Chem, 1993).
“And” between values parts separate entries of the source, which are not always exact repeats. Equal entries are not always repeated.

Columns and labels:
Mus musculus [1] = experiment: Antagonism of apomorphine effects in reserpinized mice following 0.4 umol/kg i.p.; assay type: functional
Mus musculus [2] = experiment: Antagonism of apomorphine for 10-20 minutes in reserpinized mice when a dose of 4 micro mol/kg is administered intraperitoneally; assay type: functional
Mus musculus [3] = experiment: Increase in locomotor activity in reserpinized mice following 0.4 umol/kg i.p.; assay type: functional
D(2) dopamine receptor [4] = molecular target: T1, D(2) dopamine receptor (Rattus norvegicus, UniProt P61169); experiment: Inhibitory concentration against [3H]raclopride-labeled dopamine receptor D2 in rat striatum; assay type: tissue-based
Mus musculus [5] = experiment: Antagonism of apomorphine for 0-10 minutes in reserpinized mice when a dose of 4 micro mol/kg is administered intraperitoneally; assay type: functional
Mus musculus [6] = experiment: Antagonism of apomorphine in reserpinized mice when a dose of 4 micro mol/kg is administered intraperitoneally; assay type: functional
Mus musculus [7] = experiment: Ability to stimulate dopaminergic systems by effect on locomotor activity in reserpinized mice when a dose of 4 micro mol/kg is administered intraperitoneally; assay type: functional
Mus musculus [8] = experiment: Antagonism of apomorphine effects for 10-20 minutes in reserpinized mice following 0.4 umol/kg i.p.; assay type: functional
Mus musculus [9] = experiment: Antagonism of apomorphine effects for 0-10 minutes in reserpinized mice following 0.4 umol/kg i.p.; assay type: functional; set-up: unit not given beside the values
Mus musculus [10] = experiment: Antagonism of apomorphine for 0-10 minutes in reserpinized mice when a dose of 0.4 micro mol/kg is administered intraperitoneally (*,p<0.05); assay type: functional
D(2) dopamine receptor [11] = molecular target: T1, D(2) dopamine receptor; experiment: Compound was evaluated for the binding affinity against [3H]U-86,170-labeled dopamine receptor D2 in cloned CHO cells; assay type: cell-based
Mus musculus [12] = experiment: Antagonism of apomorphine for 0-10 minutes in reserpinized mice when a dose of 36 micro mol/kg is administered intraperitoneally; assay type: functional
Felis catus [13] = experiment: Maximum decrease of sympathetic nerve activity (SND) in anesthetized cat; assay type: functional; set-up: scale not given: the % may be the effect or the level left
Mus musculus [14] = experiment: Ability to stimulate dopaminergic systems by effect on locomotor activity in reserpinized mice when a dose of 3.6 micro mol/kg is administered intraperitoneally; assay type: functional
Mus musculus [15] = experiment: Antagonism of apomorphine for 0-10 minutes in reserpinized mice when a dose of 3.6 micro mol/kg is administered intraperitoneally; assay type: functional
Rattus norvegicus [16] = experiment: Inhibition of firing rates of serotonergic neurons in the dorsal raphe nucleus by intravenous injection in rats; assay type: functional
Mus musculus [17] = experiment: Antagonism of apomorphine for 10-20 minutes in reserpinized mice when a dose of 36 micro mol/kg is administered intraperitoneally; assay type: functional
Mus musculus [18] = experiment: Effective dose on hypothermia in mouse when administered through peroral route; assay type: functional; settings: po
Mus musculus [19] = experiment: Effective dose on hypothermia in mouse when administered subcutaneously; assay type: functional; settings: sc
Rattus norvegicus [20] = organism: Rattus norvegicus; experiment: Effect on the synthesis rates of serotonin (5-HTP accumulation) in the rat ventral limbic brain region at 3.6uMkg.; assay type: functional, Limbic system
Mus musculus [21] = experiment: Antagonism of apomorphine for 10-20 minutes in reserpinized mice when a dose of 3.6 micro mol/kg is administered intraperitoneally; assay type: functional
Mus musculus [22] = experiment: Antagonism of apomorphine in reserpinized mice when a dose of 36 micro mol/kg is administered intraperitoneally; assay type: functional
Mus musculus [23] = experiment: Ability to stimulate dopaminergic systems by effect on locomotor activity in reserpinized mice when a dose of 36 micro mol/kg is administered intraperitoneally; assay type: functional
Mus musculus [24] = experiment: Maximum decrease in temperature when compound is administered subcutaneously; assay type: functional
Mus musculus [25] = experiment: Antagonism of apomorphine in reserpinized mice when a dose of 3.6 micro mol/kg is administered intraperitoneally; assay type: functional
Felis catus [26] = experiment: Maximum decrease of arterial blood pressure at sympathetic nerve activity (SND) in anesthetized cat has been observed following 1 mg/kg dose; assay type: functional; set-up: scale not given: the % may be the effect or the level left
Mus musculus [27] = experiment: Maximum decrease in temperature when compound is administered through peroral route; assay type: functional
Rattus norvegicus [28] = experiment: Effect on the synthesis rates of dopamine (DOPA accumulation) in the rat ventral limbic brain region at 3.6 micro mol/kg; assay type: functional, Limbic system
D(2) dopamine receptor [29] = molecular target: T2, D(2) dopamine receptor (Homo sapiens, UniProt P14416); experiment: Binding affinity against [3H]U-86,170-labeled dopamine receptor D2 in cloned CHO cells; assay type: cell-based
D(2) dopamine receptor [30] = molecular target: T2, D(2) dopamine receptor; experiment: Intrinsic activity from GTP shift using membranes from CHO cells transfected with mammalian dopamine receptor D2.; assay type: cell membranes
Rattus norvegicus [31] = organism: Rattus norvegicus; experiment: Effect on the synthesis rates of serotonin (5-HTP accumulation) in the rat ventral limbic brain region at 3.6uMkg; assay type: functional, Limbic system
Rattus norvegicus [32] = experiment: Inhibition of firing rates of serotonergic neurons in the dorsal raphe nucleus by intravenous injection in rats.; assay type: functional
Mus musculus [33] = experiment: Time of effect in the isolation-induced aggression behavioral assay in the mouse when a dose of 36 micro mol/kg is administered perorally; assay type: functional
Mus musculus [34] = experiment: Time of effect in the face-to-face behavioral assay in the mouse when a dose of 0.4 micro mol/kg is administered perorally; assay type: functional
Mus musculus [35] = experiment: Time of effect in the face-to-face behavioral assay in the mouse when a dose of 36 micro mol/kg is administered perorally; assay type: functional
Mus musculus [36] = experiment: Time of effect in the face-to-face behavioral assay in the mouse when a dose of 3.6 micro mol/kg is administered perorally; assay type: functional
Mus musculus [37] = experiment: Time of effect in the face-to-face behavioral assay in the mouse when a dose of 0.0 micro mol/kg is administered perorally; assay type: functional
Mus musculus [38] = experiment: Time of effect in the isolation-induced aggression behavioral assay in the mouse when a dose of 3.6 micro mol/kg is administered perorally; assay type: functional
Mus musculus [39] = experiment: Time of effect in the isolation-induced aggression behavioral assay in the mouse when a dose of 0.0 micro mol/kg is administered perorally; assay type: functional
Mus musculus [40] = experiment: Time of effect in the isolation-induced aggression behavioral assay in the mouse when a dose of 11 micro mol/kg is administered perorally; assay type: functional
Rattus norvegicus [41] = experiment: Inhibition of firing rates of dopaminergic neurons in the substantia nigra pars compacta by intravenous injection in rats.; assay type: functional; settings: Rattus norvegicus, Substantia nigra pars compacta, iv; read-out: ED50

T2 sequence (P14416 whole entry): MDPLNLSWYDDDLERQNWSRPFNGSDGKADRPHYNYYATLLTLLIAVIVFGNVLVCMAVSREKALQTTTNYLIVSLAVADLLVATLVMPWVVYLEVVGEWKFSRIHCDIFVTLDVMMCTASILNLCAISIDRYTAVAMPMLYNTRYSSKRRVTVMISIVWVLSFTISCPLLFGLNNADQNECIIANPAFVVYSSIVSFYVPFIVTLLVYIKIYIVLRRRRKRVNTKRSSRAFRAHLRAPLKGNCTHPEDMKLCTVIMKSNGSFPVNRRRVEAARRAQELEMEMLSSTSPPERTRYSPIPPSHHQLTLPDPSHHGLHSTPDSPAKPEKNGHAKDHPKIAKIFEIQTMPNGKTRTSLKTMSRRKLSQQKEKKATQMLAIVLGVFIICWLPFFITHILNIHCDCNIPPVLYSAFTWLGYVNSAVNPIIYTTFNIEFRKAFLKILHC
T1 sequence (P61169 whole entry): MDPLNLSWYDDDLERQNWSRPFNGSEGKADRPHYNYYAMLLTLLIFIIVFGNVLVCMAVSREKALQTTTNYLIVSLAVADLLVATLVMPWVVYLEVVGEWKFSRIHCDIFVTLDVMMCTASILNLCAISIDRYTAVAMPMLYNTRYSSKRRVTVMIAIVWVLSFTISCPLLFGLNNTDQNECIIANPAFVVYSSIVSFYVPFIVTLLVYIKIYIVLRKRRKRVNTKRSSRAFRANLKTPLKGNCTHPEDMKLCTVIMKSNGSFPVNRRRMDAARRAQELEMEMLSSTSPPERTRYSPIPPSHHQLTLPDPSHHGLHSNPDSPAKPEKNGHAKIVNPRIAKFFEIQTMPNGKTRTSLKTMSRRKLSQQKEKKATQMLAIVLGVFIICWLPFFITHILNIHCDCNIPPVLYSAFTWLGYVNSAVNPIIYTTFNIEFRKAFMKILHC

Structure (SMILES) | Locomotor activity (Mus musculus [1]) | Locomotor activity (Mus musculus [3]) | Locomotor activity (Mus musculus [8]) | Locomotor activity (Mus musculus [9]) | Locomotor activity (Mus musculus [12]) | Control (Felis catus [13]) [%] | Locomotor activity (Mus musculus [14]) | Locomotor activity (Mus musculus [15]) | Locomotor activity (Mus musculus [17]) | ED50 (Mus musculus [19]) [µmol/kg] | Control (Rattus norvegicus [20]) [%] | Locomotor activity (Mus musculus [21]) | Locomotor activity (Mus musculus [22]) | Locomotor activity (Mus musculus [23]) | Max temperature decrease (Mus musculus [24]) | Locomotor activity (Mus musculus [25]) | Control (Felis catus [26]) [%] | Ki (D(2) dopamine receptor [29]) [nM] | Intrinsic activity (D(2) dopamine receptor [30]) [%] | other results
CCCN1CC[C@@H]2c3ccccc3CC[C@H]21 (racemic) | 55 | 22 | 61 | 41 | – | – | – | – | – | – | – | – | – | – | – | – | – | – | – | Locomotor activity (Mus musculus [2]): 46; IC50 (D(2) dopamine receptor [4]): > 1000 nM; Locomotor activity (Mus musculus [5]): 22; Locomotor activity (Mus musculus [6]): 48; Locomotor activity (Mus musculus [7]): 15
CCCN1CC[C@H]2c3ccccc3CC[C@H]21 (racemic) | 128 | 15 | 76 | – | – | – | – | – | – | – | – | – | – | – | – | – | – | – | – | Locomotor activity (Mus musculus [10]): 56; Ki (D(2) dopamine receptor [11]): 548 nM
C=CCN1CC[C@H]2c3c(cccc3OC)CC[C@H]21 (racemic) | 55 | 6 | 94 | 96 | 54 | 189 | 37 | 121 | 45 | 8.2 | -52 | 94 | 4 | 70 | 4.2 | 6 | 59 | – | – | ED50 (Rattus norvegicus [16]): 0.04 µmol/kg; ED50 (Mus musculus [18]): 101 µmol/kg; Max temperature decrease (Mus musculus [27]): 3.6; Control (Rattus norvegicus [28]): 48%
C=CCN1CC[C@@H]2c3c(cccc3OC)CC[C@H]21 (racemic) | 140 | 36 | 65 | 65 | 40 | – | 11 | 65 | 32 | 40 | -28 | 57 | 5 | 48 | 4.5 | 30 | – | 8.5 | 0 | Control (Rattus norvegicus [31]): 158%
C=CCN1CCC2c3c(cccc3OC)CC[C@H]21 (single isomer, unassigned; (-)) | 50 | 7 | 45 | 29 | 24 | 385 | 79 | 52 | 18 | – | – | 49 | 11 | 52 | – | 14 | 55 | 6.7 | 24 | ED50 (Rattus norvegicus [32]): 0.007 µmol/kg; Time (Mus musculus [33]): 236 s; Time (Mus musculus [34]): 0.9 s; Time (Mus musculus [35]): 1.4 s; Time (Mus musculus [36]): 1.3 s; Time (Mus musculus [37]): 1.2 s; Time (Mus musculus [38]): 85 s; Time (Mus musculus [39]): 18 s and 27 s; Time (Mus musculus [40]): 40 s; ED50 (Rattus norvegicus [41]): 0.04 µmol/kg
